Measured values published in the supplement of paper PMC8967900.

Tests used:
Assay in all cases: selective drug sensitivity score (sDSS, relative to normal bone marrow) (sDSS (score)); higher = more potent and effective on the cell line relative to normal bone marrow cells
Details in all cases: 72 h
RPMI-8402 = system: RPMI-8402
KASUMI-9 = system: KASUMI-9
MOLT-14 = system: MOLT-14
KASUMI-10 = system: KASUMI-10
DND-41 = system: DND-41
HAL-01 = system: HAL-01
HPB-ALL = system: HPB-ALL
KOPN-8 = system: KOPN-8
COG-LL-317 = system: COG-LL-317
SUP-B15 = system: SUP-B15
MOLT-4 = system: MOLT-4
REH = system: REH
TANOUE = system: TANOUE
TMD5 = system: TMD5
RCH-ACV = system: RCH-ACV
CCRF-HSB2 = system: CCRF-HSB2
COG-LL-402h = system: COG-LL-402h
P12-ICHIKAWA = system: P12-ICHIKAWA
KASUMI-2 = system: KASUMI-2
KARPAS-45 = system: KARPAS-45
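Further: ALL cell lines in 384-well plates, five doses spanning 10,000-fold, each plate scaled between vehicle and 100 µmol/L benzalkonium chloride controls, sDSS an adapted area-under-curve metric.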

Row | SMILES | selective drug sensitivity score (RPMI-8402) | selective drug sensitivity score (KASUMI-9) | selective drug sensitivity score (MOLT-14) | selective drug sensitivity score (KASUMI-10) | selective drug sensitivity score (DND-41) | selective drug sensitivity score (HAL-01) | selective drug sensitivity score (HPB-ALL) | selective drug sensitivity score (KOPN-8) | selective drug sensitivity score (COG-LL-317) | selective drug sensitivity score (SUP-B15) | selective drug sensitivity score (MOLT-4) | selective drug sensitivity score (REH) | selective drug sensitivity score (TANOUE) | selective drug sensitivity score (TMD5) | selective drug sensitivity score (RCH-ACV) | selective drug sensitivity score (CCRF-HSB2) | selective drug sensitivity score (COG-LL-402h) | selective drug sensitivity score (P12-ICHIKAWA) | selective drug sensitivity score (KASUMI-2) | selective drug sensitivity score (KARPAS-45)
1 | O=C(Nc1cccc(Nc2ncc(Br)c(NCCc3cnc[nH]3)n2)c1)N1CCCC1 [BX-912] (top concentration 10000 nM) | 3.36 | 10.5 | 9.36 | 12.8 | 2.56 | -3.64 | -0.34 | 12.4 | 9.46 | 11.9 | 6.56 | 7.96 | -7.04 | 2.06 | 13.3 | 9.66 | 6.16 | 10.2 | 5.86 | 3.56
2 | Cc1c(C(=O)Nc2ccc(N3C[C@@H](C)O[C@@H](C)C3)nc2)cccc1-c1ccc(OC(F)(F)F)cc1 [Sonidegib] (top concentration 10000 nM) | 1.88 | 1.48 | 0.38 | 1.38 | 5.08 | -3.92 | 3.08 | 10.5 | -1.02 | 1.68 | 1.08 | 0.98 | -2.42 | -3.92 | 5.78 | -1.42 | -3.92 | 0.38 | -1.42 | 0.68
3 | N[C@@H]1CCCN(c2c(/C=C3\SC(=O)NC3=O)cccc2-c2ccccc2)C1 [AZD1208] (top concentration 10000 nM) | -3.1 | -1.7 | 1.5 | -4.4 | -1.3 | 6.3 | -4.4 | 7.4 | -4.4 | -4.4 | -4.4 | 5.5 | -4.1 | 3.1 | 0.6 | 6.5 | -4.4 | -4 | -4.4 | -3.3
4 | CC1=NN(c2ccc(C(=O)O)cc2)C(=O)C1=Cc1ccc(-c2cc(C)c(C)cc2[N+](=O)[O-])o1 [C646] (top concentration 25000 nM) | -2.06 | 4.74 | 3.84 | -0.36 | 2.94 | -2.06 | 5.74 | 2.44 | 1.74 | 5.04 | 0.24 | 4.44 | -2.06 | -2.06 | 1.94 | 3.14 | -0.16 | -2.06 | 15.1 | 1.74
5 | Cc1cc(Nc2ncc(Cl)c(Nc3ccccc3S(=O)(=O)C(C)C)n2)c(OC(C)C)cc1C1CCNCC1 [Ceritinib] (top concentration 2500 nM) | -1.84 | -2.04 | -3.44 | 0.36 | -3.44 | -1.44 | 1.86 | -3.44 | -3.44 | -3.44 | -3.44 | -2.84 | -3.44 | -3.44 | -2.04 | -3.44 | 2.86 | -3.44 | -3.44 | -2.54
6 | O=c1[nH]c(C2CCCN2)nc2c1oc1ccc(Cl)cc12 (stereo not given) (top concentration 10000 nM) | 6.2 | -1 | 6.4 | -2.7 | -1.1 | 0.2 | -2.4 | 8.1 | 3.3 | 1.8 | -2.8 | 0.3 | -2.8 | -2.8 | 5.1 | 3.7 | -1.5 | 0.1 | 7.2 | 0.9
7 | NS(=O)(=O)OC[C@@H]1C[C@@H](n2ccc3c(N[C@H]4CCc5ccccc54)ncnc32)C[C@@H]1O [Pevonedistat] (top concentration 10000 nM) | 16.2 | 6.2 | 13.2 | 19.1 | 10.1 | -3.5 | 5.7 | 13 | 15.7 | 15.2 | 14 | 10.3 | -3.1 | 6.7 | 12.3 | 16.3 | 8.5 | 16.7 | 6.3 | 12.1
8 | Cc1nc(Nc2ncc(C(=O)Nc3c(C)cccc3Cl)s2)cc(N2CCN(CCO)CC2)n1 [Dasatinib] (top concentration 1000 nM) | -0.8 | 3.1 | 4.2 | -2.8 | 1.4 | -2.8 | -2.8 | 0.4 | -0.7 | 30.2 | 1.9 | -2.8 | -2.8 | 10.4 | 21.5 | 37.8 | 16.8 | -1.7 | -2.8 | 1.7
9 | CCN(CC)Cc1ccc2cc(COC(=O)Nc3ccc(C(=O)NO)cc3)ccc2c1 [Givinostat] (top concentration 1000 nM) | 3.9 | 7.6 | 6.8 | 4.7 | 2.4 | -2.4 | 6.3 | 13.5 | 4.1 | 8.1 | 2.1 | 0.2 | -4.5 | -0.1 | 9.8 | 4.5 | 12.9 | 3.1 | 10.6 | 11.1
10 | C[C@@H](Oc1ccc2[nH]nc(/C=C/c3cnn(CCO)c3)c2c1)c1c(Cl)cncc1Cl (top concentration 1000 nM) | -3.14 | -1.54 | -0.94 | 5.46 | 7.06 | 1.36 | 1.46 | -2.44 | -2.74 | 6.76 | -0.54 | -0.64 | -7.04 | -0.74 | 10.6 | 3.86 | -2.14 | -2.64 | -7.04 | 0.56
